Measured values: patent US20150119601A1, “MONOFUNCTIONAL MCR + 3-HP DEHYDROGENASE” (OPX Biotechnologies, Inc., priority 2013, published 2015)
Read-outs that look alike come from different tables or passages of the source.

Tests used:
E. coli strains = assay: Growth inhibition of E. coli strains by 3-HP; type: cell-based; conditions: E. coli strains grown in the presence of 3-HP
E. coli ACCase = E. coli ACCase (Escherichia coli, UniProt P0A9Q5+P0ABD5+P0ABD8+P24182); conditions: for inhibition of E. coli ACCase by the salts: FIG. 4; for decrease of ACCase enzyme activity: relative to control (FIG. 4)
Protocol: Levels of greater than 0.66M (60 g/L) are expected to be present for commercially viable commercial production of 3-HP.
Each gene was amplified by PCRs with Pfu Ultra II HS using the manufacturer's instructions, and the PCR products were purified using the Zymo PCR Cleanup kit. Concentrations of products were measured using the Nanodrop spectophotometer. The Gibson Assembly kit (NEB) was used to construct plasmids expressing the ACCase subunit genes as directed by the manufacturer. The effect of NH4-3-HP and NH4Cl on H. elongata ACCase was tested and compared to the E. coli ACCase.

H. elongata ACCase = assay: Salt effect on H. elongata ACCase compared to E. coli ACCase; type: biochemical, Halomonas elongata; conditions: FIG. 4
Protocol: Concentrations of products were measured using the Nanodrop spectophotometer.

[1] = salts of 3-HP levels near 0.66M

Sequence of E. coli ACCase (P0ABD5 whole entry): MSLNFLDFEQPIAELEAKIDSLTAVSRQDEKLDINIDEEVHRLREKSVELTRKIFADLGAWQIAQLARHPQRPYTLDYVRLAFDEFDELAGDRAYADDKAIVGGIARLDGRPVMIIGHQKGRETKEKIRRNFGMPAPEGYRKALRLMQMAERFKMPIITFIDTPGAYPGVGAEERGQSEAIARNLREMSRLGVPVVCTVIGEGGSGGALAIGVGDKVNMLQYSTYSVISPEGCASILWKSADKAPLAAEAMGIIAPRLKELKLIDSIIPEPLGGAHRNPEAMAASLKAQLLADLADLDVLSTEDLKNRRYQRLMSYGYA
Sequence of E. coli ACCase (P0A9Q5 whole entry): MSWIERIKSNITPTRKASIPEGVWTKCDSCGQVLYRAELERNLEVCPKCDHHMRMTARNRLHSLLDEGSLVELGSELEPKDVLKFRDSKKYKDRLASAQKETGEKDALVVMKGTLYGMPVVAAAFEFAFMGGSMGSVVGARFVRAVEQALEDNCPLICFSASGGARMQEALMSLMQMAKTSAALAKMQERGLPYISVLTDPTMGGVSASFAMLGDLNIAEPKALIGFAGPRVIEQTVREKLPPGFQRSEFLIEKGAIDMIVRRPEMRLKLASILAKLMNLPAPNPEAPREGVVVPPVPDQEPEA

SMILES: O=C(O)CCO [3-HP, 3-hydroxypropionic acid]
- 3-HP level at which growth inhibition is demonstrated (E. coli strains): ≥ 20 g/L

SMILES: N.O=C(O)CCO [NH4-3-HP]
- inhibition of E. coli ACCase by the salts (E. coli ACCase): significantly inhibited
- decrease of ACCase enzyme activity (E. coli ACCase; [1]): approximately 80%
- effect of the salts on ACCase from the halophile (H. elongata ACCase): less affected

SMILES: Cl.N [NH4Cl]
- inhibition of E. coli ACCase by the salts (E. coli ACCase): significantly inhibited
- decrease of ACCase enzyme activity (E. coli ACCase; salt levels near 0.44M): approximately 80%
- effect of the salts on ACCase from the halophile (H. elongata ACCase): less affected

SMILES: O=C([O-])CCO.[Na+] [Na-3-HP]
- decrease of ACCase enzyme activity (E. coli ACCase; [1]): approximately 80%

SMILES: [Cl-].[Na+] [NaCl]
- decrease of ACCase enzyme activity (E. coli ACCase; salt levels near 0.44M): approximately 80%
